Measurements as given in PMC12040169 (PLOS Biology, 2025).

Tests used:
[1] = system: T1, C. trachomatis L2/434/Bu expressing GFP (CTL2-GFP); test: microbe, parasite or virus in culture; set-up: C. trachomatis total inclusion area by high-content imaging, normalised to DMSO; conditions: Chlamydia trachomatis, HeLa, 28.5 h; total inclusion area; read-out: % of control remaining
T1 construct: L2/434/Bu GFP intracellular growth in HeLa cells
How it was run: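 Read-out combines bulk fluorescence and imaging: GFP tracks chlamydial growth, resorufin tracks host cell viability. Plates were then fixed and Hoechst-stained so inclusions and nuclei could be imaged and counted per well.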

[2] = system: T2, CTL2-GFP (C. trachomatis L2/434/Bu, GFP-expressing); test: microbe, parasite or virus in culture; set-up: Intracellular C. trachomatis growth in HeLa cells, bulk GFP fluorescence relative to DMSO; conditions: Chlamydia trachomatis, HeLa, 28.5 h; bulk GFP, mean of 2; read-out: % of control remaining
T2 construct: L2/434/Bu, GFP-expressing
Method: MICs were calculated as described above.

[3] = in vitro; conditions: human, hela cells, % viability
[4] = in vitro; set-up: Viability of infected HeLa host cells, resazurin conversion, bulk resorufin fluorescence relative to DMSO; conditions: human, hela cells; bulk resorufin, mean of 2

SMILES	activity at 1 µM [1] [%]	activity at 5 µM [1] [%]	activity at 10 µM [1] [%]	activity at 1 µM [2] [%]	activity at 5 µM [2] [%]	activity at 10 µM [2] [%]	viability at 28.5 h, 10 µM [3] [%]	viability at 28.5 h, 1 µM [4] [%]	viability at 28.5 h, 5 µM [4] [%]	viability at 28.5 h, 10 µM [4] [%]
Cc1ccc(NC(=O)n2ccc3c(N4CCNCC4)cccc32)cc1[N+](=O)[O-] [CBK003747C]	75.6	59.3	30.3	105	78.4	44.4	81.4	89.8	85.5	76.7
CCc1cc(Br)ccc1S(=O)(=O)NC(CC)COC (centres unmarked) [CBK045265]	117	106	97.7	138	114	140	88.1	100	99	96.5
Fc1cc(Br)c(CNCc2ncc[nH]2)c(N2CCCCC2)c1F [CBK304243]	105	30.4	7.47	128	39.3	16.8	99.2	96.3	88.7	89.7
COc1ccc2[nH]cc(CCNC(=O)c3ccc([N+](=O)[O-])c(C)c3)c2c1 [CBK269426]	140	55.8	21.5	149	100	62.1	100	85.4	90.5	84.5
Cc1c(C(=O)Nc2ccc(Cl)cc2)sc2c1C(c1cccnc1)CC(=O)N2 (centres unmarked) [CBK288233]	100	56.2	44.9	99.5	55.5	83.6	87.1	101	98.8	97.1
CC(=O)NC[C@H]1CN(c2ccc3c(c2)CCSC3)C(=O)O1 [CBK018505]	129	28.5	9.34	142	29.2	12.6	99	95.5	101	101
CCCn1c(NC(=O)C(C)Oc2ccc(Cl)cc2Cl)nc2ccccc21 (centres unmarked) [CBK296979]	137	94.8	58.2	129	103	54.1	108	88	93.1	89.7
CCc1nnc(NS(=O)(=O)c2ccc(N/C=C3\C(=O)N(c4ccc(C)cc4)N=C3C)cc2)s1 [CBK262395]	116	36.9	35	87	17.9	18.6	100	96	101	91.7
O=C(CSCc1c(F)cccc1Cl)Nc1ccc(S(=O)(=O)N2CCCCC2)cc1 [CBK268034]	90.3	35.6	13.2	82.4	35.6	27.1	90.4	91.9	104	101
Cc1ccc2nsnc2c1S(=O)(=O)Nc1cccc2cccnc12 [CBK267051]	87.7	88.5	34.4	108	79.7	47.8	46.9	76.3	60.6	60.9
OC(COc1ccc(Br)cc1)CN1CCCN(c2nc3ccc(Cl)cc3s2)CC1 (centres unmarked) [CBK074643]	121	82.4	11.3	137	114	43.8	93.5	86.1	88.1	88
Nc1ncc(-c2ccc(C(=O)N3CCOCC3)cc2)cc1C(=O)NCc1ccc(Cl)c(Cl)c1 [CBK158570]	87.8	108	65.8	97.9	89.9	72	109	91.9	93.3	93.8
Cc1ccc(NC(=O)N(Cc2ccc(-c3ccccc3)cc2)CC(C)(C)CN)c(C)c1 [CBK002428C]	115	68.5	10.7	126	87.3	46.1	94.9	90.2	88.8	86.4
O=C(N/N=C/c1ccc(Sc2cccc3cccnc23)o1)c1cccc(F)c1 [CBK263263]	21	4.03	0.368	12	3.14	0	87.9	101	99.9	108
Cc1cccc(Nc2nc(C)cc3n[nH]c(=O)n23)c1 [CBK288477]	74.4	33.7	17.7	134	57.5	29.6	89.2	102	104	81.5
COc1ccc(N2CCN(C(=O)c3ccc([N+](=O)[O-])o3)CC2)cc1 [CBK091410]	128	64.3	20.7	106	55.2	16	105	106	110	125
N#CCCCN1CCC(Oc2cncc(OCc3ccc(Cl)c(Cl)c3)n2)C1 (centres unmarked) [CBK084436]	118	74.4	32.6	127	81.2	52.7	96.1	95.4	102	99.4
